# Assay results as given in patent US20160178637A1, “DETECTION OF ALPHA, BETA-DICARBONYL COMPOUNDS WITH FLUOROGENIC PROBES” (THE UNIVERSITY OF WARWICK, priority 2012, published 2016).
# How the values were obtained:
# [1] = system: human leukaemia 60 cells (HL60); assay: Fluorescence imaging of MG in isolated human leukaemia cells; format: cell-based; conditions: HL60 cells 1×10^5 per ml, DAF-2 10 μM 40 min 37° C., washed, 30-120 min; excitation laser 457 nm, emission filter 470-500 nm
# [2] = Incubation of DAF-2 with the NO donor DETA-nonoate, fluorescence; format: physicochemical; conditions: DAF-2 50 μM + DETA-nonoate 10 μM, 10 mM sodium phosphate buffer pH 7.4, 37° C., one hour
# Experimental: 4,5-Diaminofluorescein (DAF-2) was a fluorogenic probe developed for the detection of nitric oxide. 4,5-Diaminorhodamine (DAR), 8-(3,4-diaminophenyl)-2,6-bis(2-carboxyethyl)-4,4-difluoro-1,3,5,7-tetramethyl-4-bora-3a,4a-diaza-s-indacene (DAM BO-P″) and o-diaminocyanine are analogous o-diamino derivatizing agents based on different intense fluorophores. DAF-2 reacts with nitric oxide to form the fluorophore triazolofluorescein [6]. For example, incubation of DAF-2 (50 μM) with the NO donor (Z)-1-[2-(2-aminoethyl)-N-(2-ammonioethyl)amino]diazen-1-ium-1,2-diolate (DETA-nonoate), 10 μM, in 10 mM sodium phosphate buffer, pH 7.4 at 37° C., for one hour gave characteristic fluorescence of triazolofluorescein—excitation and emission maximum wavelengths of 491 and 515 nm, respectively. A further metabolite that reacts with DAF-2 is ascorbic acid which forms adducts DAF-2-DHA-5008 and DAF-2-DHA-518 which are fluorescent with excitation and emission wavelength maxima of 490 and 514 nm, respectively.
emission maximum wavelength [2] [nm],excitation maximum wavelength [2] [nm],SMILES,fluorescence image of endogenous MG in cells [1]
–,–,"Nc1cc2c(cc1N)C1(OC2=O)c2ccc(O)cc2Oc2cc(O)ccc21 [DAF-2, 4,5-diaminofluorescein]",fluorescence indicate of the DAF-2 MG adduct
515,491,O=C1OC2(c3ccc(O)cc3Oc3cc(O)ccc32)c2ccc3[nH]nnc3c21 [triazolofluorescein],–
